Patent publication US11253519B2, “Composition used to improve symptoms of autism spectrum disorder, and method using same for improving symptoms of autism spectrum disorder” (RENASCIENCE CO., LTD., priority 2016, dated 2022)

What was measured:
[1] = Vitamin B1 level in whole blood, serum pyridoxamine and pyridoxal levels and Wernicke's encephalopathy in two test subjects on pyridoxamine medication; type: in vivo, human
[2] = Capture of dopamine by glyoxal, free dopamine by HPLC; type: biochemical; conditions: 2.5 mM dopamine + 25 mM glyoxal + 25 mM test compound, pH 7.4, room temperature, 30 minutes; glyoxal alone about 30%
Method: (§1) The reaction solutions are incubated at room temperature, and the amount of free serotonin or dopamine, which were not captured by glyoxal, in the reaction solutions was measured by HPLC.
(§2) The negative control contained only 5-HT or DP with a buffer (GO and the test compounds were not added) (test samples 1 and 5), and the positive control contained 5-HT or DP and only GO (none of the test compounds was added) (test samples 2 and 6). […] After incubation, the reaction solutions were diluted 10-fold (pH 7.4) with a 0.25 M phosphate buffer, and analyzed by HPLC. The HPLC analysis was performed with instruments produced by Shimadzu Corporation (system controller: SCL-10A vp, auto injector: SIL-10A, degasser: DGU-12A, liquid chromatograph: LC-10AD vp, UV-Vis detector: SPD-10A vp, and column oven: CTO-10AC vp) under the conditions shown in Table 6. The data analysis was performed with Chromatopac C-R7A Plus.

[3] = Capture of serotonin by glyoxal, free serotonin by HPLC; type: biochemical; conditions: 2.5 mM serotonin + 25 mM glyoxal + 25 mM test compound, pH 7.4, room temperature, 2 hours; glyoxal alone about 40%
Method: as §1, §2

ASD patients = conditions: cited from earlier work

For `CC(=C(CCO)SSCC1CCCO1)N(C=O)Cc1cnc(C)nc1N` (stereo in doubt) [Fursultiamine, fursultiamine, reference compound], the “symptom of Wernicke's encephalopathy” value ([1]; subject ID No. 3, 14 weeks after start (8 weeks after start of thiamine compound 75 mg/day oral)) was “disappeared”, the “vitamin B1 level in whole blood” value ([1]; subject ID No. 3, fursultiamine 75 mg/day oral for 6 weeks with continued pyridoxamine, 12 weeks after start, 28 ng/mL before thiamine) was 135 ng/mL and the “symptoms of Wernicke's encephalopathy” value ([1]; subject ID No. 6, 11 weeks after start, on thiamine compound) was “disappeared”. For the same compound, the “vitamin B1 level in whole blood” value ([1]; subject ID No. 6, fursultiamine 300 mg/day intravenous, then 100 to 50 mg/day oral, with pyridoxamine, 11 weeks after start, 25 ng/mL before thiamine) was 150 ng/mL.
In the case of `Cc1ncc(CO)c(C=O)c1O` [pyridoxal], the “amount of free dopamine relative to the negative control taken as 100%” value [2] is listed as “no free dopamine became detectable”, the “amount of free serotonin relative to the negative control taken as 100%” value [3] is listed as “rather decreased” and the “repetitive patterns of behavior of ASD patients” value (ASD patients; 30 mg/kg/day, other research denies this efficacy (NPL 6)) is listed as “effective”.
For `Cc1ncc(CO)c(CO)c1O` [pyridoxine], the “side effects (irritability, hyperactivity, sound sensitivity, enuresis)” value (ASD patients; children with ASD, NPL 8, NPL 9) is listed as “may cause side effects to develop”, the verbal intelligence (ASD patients; children with pervasive developmental disorder who have sensitivity to sound, NPL 7) is listed as “improvement in verbal intelligence” and the “intelligence quotient (IQ) scores” value (ASD patients; children with pervasive developmental disorder, sensitive to sound, expressive language disorder, dyspraxia, high amount, NPL 2) is listed as “increases in intelligence quotient (IQ) scores”.
